Values after ≈ are worked out from the molar mass of the structure shown.

For 45 compounds, IC50 results are on record in patent US5610320A, “Sulfonamide phenyl substituted compounds” (Eisai Co., Ltd., priority 1990, dated 1997).

The subject of the first assay is KB cells (human nasopharyngeal cells). The assay is described as follows: In vitro antineoplastic test on KB cells (MTT, 3 days). Particulars: 72 h, KB cells in vitro, 37° C. for three days, MTT, read-out: IC50. Type of assay: cell-based.
Procedure: In vitro antineoplastic test on KB cells (human nasopharyngeal cells):
1.25×10^3 (0.1 ml) of KB cells suspended in a RPMI 1640 medium (a product of Nissui Seiyaku Co., Ltd.) containing 20% of bovine fetus serum, penicillin (100 units/ml), streptomycin (100 μg/ml), mercaptoethanol (5×10^-5 M) and sodium pyruvate (1 mM) were placed in each hole of a 96-hole flat-bottom microplate and cultured in an incubator containing 5% of carbon dioxide at 37° C. for one day.
This concentration was the maximum one, which was subjected to two-fold serial dilution with 0.1% bovine fetus serum RPMI 1640 culture liquid containing 0.5% of dimethyl sulfoxide. It was added to the KB cells in each hole of the above-described culture plate in an amount of 0.1 ml and cultured in an incubator containing 5% of carbon dioxide at 37° C. for three days.
After the completion of the culture, 0.05 ml of MTT [3-(4,5-dimethylthiazol-2-yl)-2,5-diphenyltetrazolium bromide] solution (3.3 mg/ml) was added to each hole and the culture was conducted for an additional 1 h. The supernatant liquid was removed from each hole by suction and a formazan thus formed was dissolved in 0.1 ml of dimethyl sulfoxide. The absorbance at 540 nm was determined with a microplate reader to use as an index of a viable count. A percentage inhibition was calculated according to the following formula and the concentration of the test compound for 50% inhibition (IC50) was determined.
Percentage inhibition (%)=(C-T)/C×100
T: absorbance of the hole containing the test compound
C: absorbance of the hole containing no test compound
Take `COCOc1ccc(Nc2ncccc2NS(=O)(=O)c2ccc(OC)cc2)cc1` [Example 5, 4-Methoxy-N-[2-[(4-methoxymethyloxyphenyl)amino]-3-pyridyl-]benzenesulfonamide]: the IC50 (as a rule, the concentration that gives 50% inhibition) was found to be 0.73 µg/mL (≈ 1.76 µM).

As for `COc1ccc(S(=O)(=O)Nc2cccnc2Nc2ccc(C)cc2)cc1` [Example 8, 4-Methoxy-N-[2-[(4-methylphenyl)amino]-3-pyridyl]benzenesulfonamide], the IC50 came out at 0.89 µg/mL (≈ 2.41 µM).

For `COc1ccc(S(=O)(=O)Nc2cccnc2Nc2ccccc2F)cc1` [Example 9, N-[2-[(2-Fluorophenyl)amino]-3-pyridyl]-4-methoxybenzenesulfonamide], the IC50 is 0.34 µg/mL (≈ 0.911 µM).

For the compound `COc1ccc(S(=O)(=O)Nc2cccnc2Nc2cccc(F)c2)cc1` [Example 10, N-[2-[(3-Fluorophenyl)amino]-3-pyridyl]-4-methoxybenzenesulfonamide], the IC50 worked out at 0.21 µg/mL (≈ 0.562 µM).

Turning to `COc1ccc(S(=O)(=O)Nc2cccnc2Nc2ccc(F)cc2)cc1` [Example 11, N-[2-[(4-Fluorophenyl)amino]-3-pyridyl]-4-methoxybenzenesulfonamide], the IC50 was determined as 0.33 µg/mL (≈ 0.884 µM).

With `COc1ccc(S(=O)(=O)Nc2cccnc2Nc2cccc(OC)c2)cc1` [Example 13, 4-Methoxy-N-[2-[(3-methoxyphenyl)amino]-3-pyridyl]benzenesulfonamide], the IC50 amounted to 2.6 µg/mL (≈ 6.75 µM).

With `COc1ccc(S(=O)(=O)Nc2cccnc2Nc2ccccc2OC)cc1` [Example 16, 4-Methoxy-N-[2-[(2-methoxyphenyl)amino]-3-pyridyl]benzenesulfonamide], the IC50 was determined as 1.5 µg/mL (≈ 3.89 µM).

For the compound `COc1ccc(S(=O)(=O)Nc2cccnc2Nc2cccc(C)c2)cc1` [Example 17, 4-Methoxy-N-[2-[(3-methylphenyl)amino]-3-pyridyl]benzenesulfonamide], the IC50 amounted to 0.94 µg/mL (≈ 2.54 µM).

`COc1ccc(S(=O)(=O)Nc2cccnc2Nc2ccccc2C)cc1` [Example 18, 4-Methoxy-N-[2-[2(2-methylphenyl)amino]-3-pyridyl]benzenesulfonamide]: the IC50 was found to be 0.73 µg/mL (≈ 1.98 µM).

As for `Nc1ccc(S(=O)(=O)Nc2cccnc2Nc2ccccc2)cc1` [Example 21, 4-Amino-N-(2-anilino-3-pyridyl)benzenesulfonamide], the IC50 worked out at 1.1 µg/mL (≈ 3.23 µM).

`CCOc1ccc(S(=O)(=O)Nc2cccnc2Nc2ccccc2)cc1` [Example 27, N-(2-Anilino-3-pyridyl)-4-ethoxybenzenesulfonamide]: the IC50 came to 1.4 µg/mL (≈ 3.79 µM).

`COc1ccc(S(=O)(=O)Nc2cccnc2Nc2cccc(O)c2)cc1` [Example 34, N-[2-[(3-Hydroxyphenyl)amino]-3-pyridyl]-4-methoxybenzenesulfonamide]: the IC50 is 0.11 µg/mL (≈ 0.296 µM).

On to `CCOc1ccc(Nc2ncccc2NS(=O)(=O)c2ccc(OC)cc2)cc1` [Example 35, N-[2-[(4-Ethoxyphenyl)amino]-3-pyridyl]-4-methoxybenzenesulfonamide], for which the IC50 stood at 0.45 µg/mL (≈ 1.13 µM).

On to `COc1ccc(S(=O)(=O)Nc2cccnc2Nc2ccc(O)c(C)c2)cc1` [Example 36, N-[2-[(4-hydroxy-3-methylphenyl)amino]-3-pyridyl]-4-methoxybenzenesulfonamide], for which the IC50 is 0.72 µg/mL (≈ 1.87 µM).

For `CCOC(=O)c1ccc(Nc2ncccc2NS(=O)(=O)c2ccc(OC)cc2)cc1` [Example 37, Ethyl 4-[[3-(4-methoxybenzenesulfonamido)-2-pyridyl]amino]benzoate], the IC50 is 1.3 µg/mL (≈ 3.04 µM).

Regarding `COc1ccc(S(=O)(=O)Nc2cccnc2Nc2ccc(Oc3ccccc3)cc2)cc1` [Example 40, 4-Methoxy-N-[2-[(4-phenoxyphenyl)amino]-3-pyridyl]benzenesulfonamide], the IC50 was determined as 2.1 µg/mL (≈ 4.69 µM).

On to `COc1ccc(S(=O)(=O)Nc2cccnc2Nc2ccc(Cl)cc2)cc1` [Example 42, N-[2-[(4-Chlorophenyl)amino]-3-pyridyl]-4-methoxybenzenesulfonamide], for which the IC50 was 0.59 µg/mL (≈ 1.51 µM).

Turning to `COc1ccc(S(=O)(=O)Nc2cccnc2Nc2ccccc2O)cc1` [Example 43, N-[2-[(2-Hydroxyphenyl)amino]-3-pyridyl]-4-methoxybenzenesulfonamide], the IC50 was determined as 0.26 µg/mL (≈ 0.7 µM).

On to `COc1ccc(S(=O)(=O)Nc2c(Nc3ccccc3)ncnc2OC)cc1` [Example 47, N-(4-Anilino-6-methoxy-5-pyrimidyl)-4-methoxybenzenesulfonamide], for which the IC50 came to 2.6 µg/mL (≈ 6.73 µM).

Turning to `COc1ccc(S(=O)(=O)Nc2ccc(OC)nc2Nc2ccccc2)cc1` [Example 54, N-(2-Anilino-6-methoxy-3-pyridyl)-4-methoxybenzene sulfonamide], the IC50 was found to be 0.54 µg/mL (≈ 1.4 µM).

For the compound `COc1ccc(S(=O)(=O)Nc2ccccc2Nc2ncccn2)cc1` [Example 57, 4-Methoxy-N-[2-[(2-pyrimidyl)amino]phenyl]benzenesulfonamide], the IC50 was 0.17 µg/mL (≈ 0.477 µM).

For the compound `COc1ccc(S(=O)(=O)Nc2ccccc2Nc2ccccc2)cc1` [Example 58, N-(2-Anilinophenyl)-4-methoxybenzenesulfonamide], the IC50 amounted to 1.2 µg/mL (≈ 3.39 µM).

Turning to `COc1ccc(S(=O)(=O)Nc2cccnc2Nc2ccc(OC(=O)c3ccccc3)cc2)cc1` [Example 59, N-[2-[(4-Benzoyloxyphenyl)amino]-3-pyridyl]-4-methoxybenzenesulfonamide], the IC50 came to 0.18 µg/mL (≈ 0.379 µM).

As to `COc1ccc(S(=O)(=O)Nc2cccnc2Nc2ccc(OC(=O)CN)cc2)cc1.Cl.Cl` [Example 61, N-[2-[[4-(Aminoacetyloxy)phenyl]amino]-3-pyridyl]-4-methoxybenzenesulfonamide dihydrochloride], the IC50 was determined as 0.83 µg/mL.

On to `COc1ccc(Nc2ncccc2N(C)S(=O)(=O)c2ccc(OC)cc2)cc1` [Example 62, 4-Methoxy-N-[2-[(4-methoxyphenyl)amino]-3-pyridyl]-N-methylbenzenesulfonamide], for which the IC50 stood at 0.53 µg/mL (≈ 1.33 µM).

With `COc1ccc(S(=O)(=O)Nc2cccnc2Nc2ccc(OC(=O)c3ccccc3N)cc2)cc1` [Example 63, N-[2-[[4-(2-Aminobenzoyloxy)phenyl]amino]-3-pyridyl]-4-methoxybenzenesulfonamide], the IC50 amounted to 0.2 µg/mL (≈ 0.408 µM).

As for `COc1ccc(S(=O)(=O)Nc2cccnc2Nc2ccc(OP(=O)(O)O)cc2)cc1` [Example 64, 4-[[3-(4-Methoxybenzenesulfonamido)-2-pyridyl]amino]phenyl dihydrogenphosphate], the IC50 was determined as 0.55 µg/mL (≈ 1.22 µM).

For `COc1ccc(S(=O)(=O)Nc2cccnc2Nc2cccc(OP(=O)(O)O)c2)cc1` [Example 65, 3-[[3-(4-Methoxybenzenesulfonamido)-2-pyridyl]amino]phenyl dihydrogenphosphate], the IC50 is 0.2 µg/mL (≈ 0.443 µM).

Take `COc1ccc(S(=O)(=O)Nc2ccccc2Nc2ccc(O)cc2)cc1` [Example 67, N-[2-[(4-Hydroxyphenyl)amino]phenyl]-4-methoxybenzenesulfonamide]: the IC50 was found to be 1.4 µg/mL (≈ 3.78 µM).

For the compound `COc1ccc(S(=O)(=O)Nc2cccnc2Nc2ccc(OC(=O)C(C)(C)C)cc2)cc1` [Example 68, 4-Methoxy-N-[2-[(4-pivaloyloxyphenyl)amino]-3-pyridyl]benzenesulfonamide], the IC50 was found to be 0.17 µg/mL (≈ 0.373 µM).

On to `COc1ccc(S(=O)(=O)Nc2ccccc2NC(=O)c2cnccc2C)cc1` [Example 71, N-[2-(4-Methoxybenzenesulfonamido)phenyl]-4-methylnicotinamide], for which the IC50 worked out at 0.11 µg/mL (≈ 0.277 µM).

As for `COc1ccc(S(=O)(=O)Nc2ccccc2NC(=O)c2ccncc2C)cc1` [Example 72, N-[2-(4-Methoxybenzenesulfonamido)phenyl]-3-methylisonicotinamide], the IC50 is 0.012 µg/mL (≈ 0.0302 µM).

As to `COc1ccc(S(=O)(=O)Nc2ccccc2Nc2ccccn2)cc1` [Example 76, 4-Methoxy-N-[2-[(2-pyridyl)amino]phenyl]benzenesulfonamide], the IC50 was 0.13 µg/mL (≈ 0.366 µM).

Consider `COc1ccc(S(=O)(=O)Nc2ccccc2NC(=O)c2ccc(F)cc2)cc1` [Example 82, 4-Fluoro-N-[2-(4-methoxybenzenesulfonamido)phenyl]benzamide], for which the IC50 worked out at 0.026 µg/mL (≈ 0.0649 µM).

As to `COc1ccc(S(=O)(=O)Nc2ccccc2NC(=O)c2ccco2)cc1` [Example 85, N-[2-(4-Methoxybenzenesulfonamido)phenyl]-2-furancarboxamide], the half-inhibitory concentration (IC50) came out at 0.01 µg/mL (≈ 0.0269 µM).

For the compound `COc1ccc(S(=O)(=O)Nc2ccccc2NC(=O)c2ccncc2)cc1` [Example 88, N-[2-(4-Methoxybenzenesulfonamido)phenyl]isonicotinamide], the IC50 was determined as 0.01 µg/mL (≈ 0.0261 µM).

`COc1ccc(S(=O)(=O)Nc2cccc(C)c2NC(=O)c2ccncc2)cc1` [Example 91, N-[2-(4-Methoxybenzenesulfonamido)-6-methylphenyl]isonicotinamide]: the IC50 turned out to be 0.079 µg/mL (≈ 0.199 µM).

Turning to `COc1ccc(S(=O)(=O)Nc2ccccc2NC(=O)c2ccc(F)cc2Cl)cc1` [Example 94, 2-Chloro-4-fluoro-N-[2-(4-methoxybenzenesulfonamido)phenyl]benzamide], the IC50 came out at 0.064 µg/mL (≈ 0.147 µM).

With `COc1ccc(S(=O)(=O)Nc2ccccc2NC(=O)c2ccccc2C)cc1` [Example 95, N-[2-(4-Methoxybenzenesulfonamido)phenyl]-2-methylbenzamide], the 50% inhibitory concentration (IC50) was determined as 0.045 µg/mL (≈ 0.114 µM).

For the compound `COc1ccc(S(=O)(=O)Nc2ccccc2NC(=S)c2ccc(F)cc2)cc1` [Example 97, 4-Fluoro-N-[2-(4-methoxybenzenesulfonamido)phenyl]benzothioamide], the IC50 worked out at 0.15 µg/mL (≈ 0.36 µM).

Regarding `COc1ccc(S(=O)(=O)Nc2ccc(F)cc2NC(=O)c2ccccc2)cc1` [Example 98, N-[5-fluoro-2-(4-methoxybenzenesulfonamido)phenyl]benzamide], the IC50 worked out at 0.079 µg/mL (≈ 0.197 µM).

In the case of `COc1ccc(S(=O)(=O)Nc2ccccc2NC(C)=O)cc1` [Example 101, N-[2-(4-Methoxybenzenesulfonamido)phenyl]acetamide], the IC50 was 0.1 µg/mL (≈ 0.312 µM).

As for `CCNC(=O)Nc1ccccc1NS(=O)(=O)c1ccc(OC)cc1` [Example 104, N-[2-[(Ethylaminocarbonyl)amino]phenyl]-4-methoxybenzenesulfonamide], the IC50 came to 0.099 µg/mL (≈ 0.283 µM).

On to `Nc1ccc(S(=O)(=O)Nc2ccccc2NC(=O)c2ccc(F)cc2)cc1` [Example 106, N-[2-(4-Aminobenzenesulfonamido)phenyl]-4-fluorobenzamide], for which the IC50 was found to be 0.3 µg/mL (≈ 0.778 µM).

Staying with this assay, now noted: KB, 72 h.
Take `COc1ccc(S(=O)(=O)Nc2cccnc2Nc2ccc(OC(=O)N(C)C)cc2)cc1` [Example 52, N-[2-[(4-Dimethylcarbamoyloxyphenyl)amino]-3-pyridyl]-4-methoxybenzenesulfonamide]: it took 0.54 µg/mL (≈ 1.22 µM) to reach half-maximal inhibition (IC50).
